Patent publication US20240238263A1, “USE OF PYRIDONE DERIVATIVE CONTAINING HETEROATOM CYCLOBUTANE SUBSTITUENT” (GUANGZHOU JOYO PHARMATECH CO., LTD, priority 2021, published 2024)

Tested on: dorsal skin full-thickness excisional wound in STZ-induced diabetic rats
Assay: Dorsal skin full-thickness excisional wound model in STZ-induced diabetic rats, wound closure
Type: in vivo, Wistar rats
Procedure: In this study, 50 STZ-diabetic rats were used to simulate Type 1 diabetes, with an additional 8 normal rats serving as the control group (normal blank gel control group (without STZ)). The method for modeling the STZ-diabetic rat is as follows: Male Wistar rats were weighed and then intraperitoneally injected with Streptozotocin (STZ, freshly prepared, dissolved in 0.1 M citrate buffer (pH 4.5)) at a dosage of 80 mg/kg. STZ was intraperitoneally injected twice in total, with a 5-day interval between injections. Three days after the second STZ injection, rats with fasting blood glucose levels greater than 250 mg/dl were defined as diabetic model rats. Studies on skin wound healing could be conducted from 1 to 8 weeks after the successful establishment of the diabetic rat model. • 2.
In diabetic model rats, the dorsal skin was marked with a stamp, and full-thickness excision was performed to create a standardized wound area. The day of the full-thickness skin excision surgery was designated as Day 1 of the experiment. The specified surgical procedure was as follows: • 1) Prior to surgery, animals were anesthetized with 2-5% isoflurane. The back was shaved and prepared, and the surgical area was disinfected with iodophor, followed by de-iodination with 75% alcohol. • 2) All animals were marked on the skin of their backs using a stamp with a circular pattern. A circular full-thickness skin excision was performed along the midline of the rat's back, extending down to the fascial layer. […] The surgical site was essentially consistent for each animal; • 3) Post-surgery, every 8-12 hours, 8 mg/kg of bupivacaine (diluted to 0.25% with physiological saline) was injected subcutaneously at the wound site. All animals were closely monitored until they regained consciousness. Animals were monitored daily, and if symptoms of pain persisted, they would continue to receive pain medication. • 4. Drug administration:
All experimental groups were topically administered. Before administering the medication, wounds were rinsed with physiological saline and any residual moisture was absorbed with a sterile cotton swab. Then, the medication was applied. For the GeneTime group, the solution was evenly applied to the wound and surrounding skin, with the dressing changed twice a day. For the other groups, the gel samples were applied from the periphery toward the center, focusing first on the edges of the lesion before covering inward, with the dressing changed twice a day. Medication was applied immediately after the wound model was created, and each group was continuously administered for 18 days. For specific administration information, see Table 2. • 5. Efficacy assessment • 1) Blood glucose monitoring: Blood samples were obtained from all animals via tail vein sampling, and fasting blood glucose levels were measured on days 0/9/18 using a glucometer. • 2) Evaluation of wound closure:
After anesthetizing the rats with isoflurane, a ruler was placed near the wound as a reference scale. Using a digital camera, photos of the wound on the rat's back were taken on days 1, 4, 8, 11, 14, and 18, maintaining a constant focus and pixel condition. The obtained images were processed by software to measure the wound area. • 6. Statistical analysis
Experimental data were expressed as the mean±standard error of the mean (mean±S.E.M.). Statistical analyses were conducted using appropriate methods in software such as Graphpad Prism or SPSS. A p-value of less than 0.05 is considered to indicate a significant difference. • 7. Results • 1) Fasting blood glucose
Remaining Open Wound Area %=Open Wound Area (O)/Initial Wound Area (I)*100%

CC1(c2ccc(=O)n(-c3ccsc3)c2)COC1 [compound I]
Remaining open wound area (0.3% compound I gel, 50 mg topical twice daily, Day 1 (day of surgery)): 100% ±
Remaining open wound area (0.3% compound I gel, 50 mg topical twice daily, Day 4): 94.82% ±
Remaining open wound area (0.3% compound I gel, 50 mg topical twice daily, Day 8): 54% ±
Remaining open wound area (0.3% compound I gel, 50 mg topical twice daily, Day 11): 24.5% ±
Remaining open wound area (0.3% compound I gel, 50 mg topical twice daily, Day 14): 7.75% ±
Remaining open wound area (0.3% compound I gel, 50 mg topical twice daily, Day 18): 1.22% ±
Remaining open wound area (1% compound I gel, topical twice daily, Day 1 (day of surgery)): 100% ±
Remaining open wound area (1% compound I gel, topical twice daily, Day 4): 94.25% ±
Remaining open wound area (1% compound I gel, topical twice daily, Day 8): 55.4% ±
Remaining open wound area (1% compound I gel, topical twice daily, Day 14): 5.47% ±
Remaining open wound area (1% compound I gel, topical twice daily, Day 18): 0.78% ±
Change of remaining open wound area % vs model blank gel control group (1% compound I gel, after 14 days of topical administration, no statistical difference): tended to decrease
Change of remaining open wound area % vs model blank gel control group (1% compound I gel, day 11 after administration, P<0.01): significantly reduced
Remaining open wound area (3% compound I gel, topical twice daily, Day 1 (day of surgery)): 100% ±
Remaining open wound area (3% compound I gel, topical twice daily, Day 4): 93.96% ±
Remaining open wound area (3% compound I gel, topical twice daily, Day 8): 56.92% ±
Remaining open wound area (3% compound I gel, topical twice daily, Day 14): 6% ±
Remaining open wound area (3% compound I gel, topical twice daily, Day 18): 2.01% ±
Change of remaining open wound area % vs model blank gel control group (3% compound I gel, after 14 days of topical administration, no statistical difference): tended to decrease
Change of remaining open wound area % vs model blank gel control group (3% compound I gel, day 11 after administration, P<0.05): significantly reduced
